Test results: ChEMBL document CHEMBL6074645, “Structure-based virtual screening discovers novel PKMYT1 inhibitors” (RSC Med Chem, 2024)

What follows are molecules tested against T1, Membrane-associated tyrosine- and threonine-specific cdc2-inhibitory kinase (Homo sapiens, UniProt Q99640) (assay: Inhibition of PKMYT1 (unknown origin) incubated for 1 hr by LanthaScreen Eu kinase binding method).
T1 sequence (Q99640 whole entry): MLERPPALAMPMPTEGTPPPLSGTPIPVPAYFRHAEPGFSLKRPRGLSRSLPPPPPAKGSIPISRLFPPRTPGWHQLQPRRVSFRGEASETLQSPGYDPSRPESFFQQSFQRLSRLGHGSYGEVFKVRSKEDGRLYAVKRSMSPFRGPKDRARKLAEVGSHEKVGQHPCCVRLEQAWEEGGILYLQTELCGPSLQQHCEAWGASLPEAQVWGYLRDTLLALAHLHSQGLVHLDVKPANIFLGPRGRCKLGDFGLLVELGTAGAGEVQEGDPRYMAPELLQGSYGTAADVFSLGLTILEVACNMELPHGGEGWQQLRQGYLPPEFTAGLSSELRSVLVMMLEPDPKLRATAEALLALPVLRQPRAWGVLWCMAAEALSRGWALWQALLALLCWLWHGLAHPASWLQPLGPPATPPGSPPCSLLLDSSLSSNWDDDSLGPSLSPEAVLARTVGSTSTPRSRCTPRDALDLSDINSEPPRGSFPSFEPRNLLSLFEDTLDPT

| Structure (SMILES) | IC50 [nM] |
| --- | --- |
| O=C(O[C@@H]1Cc2c(O)cc(O)cc2O[C@@H]1c1cc(O)c(O)c(O)c1)c1cc(O)c(O)c(O)c1 [EPIGALOCATECHIN GALLATE] | 137 |
| O=c1c(-c2ccc(O)cc2)coc2cc(O)cc(O)c12 [GENISTEIN] | 78000 |
| O=c1cc(-c2ccc(O)c(O)c2)oc2cc(O)cc(O)c12 [LUTEOLIN] | 1500 |
| COc1ccc(-c2oc3c(CC=C(C)C)c(O)cc(O)c3c(=O)c2O)cc1 [ICARITIN] | 51000 |
| O=C(O[C@@H]1Cc2c(O)cc(O)cc2O[C@H]1c1cc(O)c(O)c(O)c1)c1cc(O)c(O)c(O)c1 [GALLOCATECHIN GALLATE] | 159 |

These molecules were tested against T1, Membrane-associated tyrosine- and threonine-specific cdc2-inhibitory kinase (assay: Displacement of fluorescently labeled tracer from human PKMYT1 (75 to 362 residues) expressed in Escherichia coli BL21 (DE3) by fluorescence anisotropy based kinase assay).

| IC50 [nM] | Structure (SMILES) |
| --- | --- |
| 72 | CCN(CC)CCOc1ccc(Nc2ncc3cc(-c4c(Cl)cccc4Cl)c(=O)n(C)c3n2)cc1 [PD-0166285] |
